Measured values as given in the supplement of paper PMC11451515.

How the values were obtained:
Details in all cases: 48 h
NOMO1 [1] = experiment: cell viability relative to DMSO control; higher = less cytotoxic
In short: (§1)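 Viability values are per-plate percentages of DMSO wells, with background from cell-free wells. Library compounds in DMSO were pin-dosed, in an 11-point threefold series from 47 μM to 0.79 nM, onto NOMO1 or SEM (500 cells/well) or P12-Ichikawa (1000 cells/well) leukemia cells in 1536-well plates (5 μl). Those cells had been adapted for at least four passages in each medium, and CellTiter-Glo One luminescence was read after 48 h at 37°C.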

P12-Ichikawa [2] = experiment: as above
In short: as §1

SEM cells [3] = experiment: as above
In short: as §1

NOMO1 [4] = experiment: AUC of viability dose-response curve (% viability x log10 dose units); higher = less sensitive
In short: (§2)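 Leukemia cells adapted to each medium were seeded in 1536-well plates (500 or 1000 cells/well) and given library compounds in DMSO for 48 h at 37°C. The 11 threefold doses spanned 47 μM to 0.79 nM, and CellTiter-Glo One luminescence was normalised per plate to DMSO and cell-free wells before four-parameter log-logistic fitting on log10 dose. Area under the curve was integrated with the trapezoidal rule, scaling curves above full viability and removing curves that failed quality control.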

P12-Ichikawa [5] = experiment: as above
In short: as §2

SEM cells [6] = experiment: as above
In short: as §2

CCC(C)SSc1ncc[nH]1 (stereo not drawn)
cell viability [%]
Details	NOMO1 [1]	P12-Ichikawa [2]	SEM cells [3]
HPLM + 10% dialyzed FBS, 0.000781 µM	88	91.9	87.4
HPLM + 10% dialyzed FBS, 0.00234 µM	85.5	99.9	90.2
HPLM + 10% dialyzed FBS, 0.00702 µM	94.8	97.1	107
HPLM + 10% dialyzed FBS, 0.0211 µM	103	105	101
HPLM + 10% dialyzed FBS, 0.0632 µM	102	98.2	91
HPLM + 10% dialyzed FBS, 0.19 µM	105	103	97.5
HPLM + 10% dialyzed FBS, 0.569 µM	90.3	94.9	89
HPLM + 10% dialyzed FBS, 1.71 µM	87.4	111	36.2
HPLM + 10% dialyzed FBS, 5.12 µM	104	101	81.9
HPLM + 10% dialyzed FBS, 15.4 µM	53.6	69.5	57.8
HPLM + 10% dialyzed FBS, 46.1 µM	12.6	10.6	7.14
RPMI 5 mM glucose + 10% FBS, 0.000781 µM	86	92.8	93.9
RPMI 5 mM glucose + 10% FBS, 0.00234 µM	93.9	102	91.5
RPMI 5 mM glucose + 10% FBS, 0.00702 µM	97.7	91.1	88.7
RPMI 5 mM glucose + 10% FBS, 0.0211 µM	98.2	90	102
RPMI 5 mM glucose + 10% FBS, 0.0632 µM	92.5	96.1	92.7
RPMI 5 mM glucose + 10% FBS, 0.19 µM	93.1	95	109
RPMI 5 mM glucose + 10% FBS, 0.569 µM	96.5	93.8	93.8
RPMI 5 mM glucose + 10% FBS, 1.71 µM	104	98.1	17.7
RPMI 5 mM glucose + 10% FBS, 5.12 µM	104	99.7	82.9
RPMI 5 mM glucose + 10% FBS, 15.4 µM	67.5	62.1	29.9
RPMI 5 mM glucose + 10% FBS, 46.1 µM	13.6	6.08	6.98
RPMI 5 mM glucose + 10% dialyzed FBS, 0.000781 µM	89	92	85.7
RPMI 5 mM glucose + 10% dialyzed FBS, 0.00234 µM	97.6	91.4	75.8
RPMI 5 mM glucose + 10% dialyzed FBS, 0.00702 µM	89.2	93.5	83.2
RPMI 5 mM glucose + 10% dialyzed FBS, 0.0211 µM	101	90.4	83.9
RPMI 5 mM glucose + 10% dialyzed FBS, 0.0632 µM	94.5	90.1	89.8
RPMI 5 mM glucose + 10% dialyzed FBS, 0.19 µM	94.5	95.8	108
RPMI 5 mM glucose + 10% dialyzed FBS, 0.569 µM	94.8	89.9	78.8
RPMI 5 mM glucose + 10% dialyzed FBS, 1.71 µM	105	97.6	27.2
RPMI 5 mM glucose + 10% dialyzed FBS, 5.12 µM	101	92	73.6
RPMI 5 mM glucose + 10% dialyzed FBS, 15.4 µM	81.8	34.8	10.3
RPMI 5 mM glucose + 10% dialyzed FBS, 46.1 µM	9.7	5.7	6.57

AUC of viability dose-response curve
Details	NOMO1 [4]	P12-Ichikawa [5]	SEM cells [6]
HPLM + 10% dialyzed FBS	416	441	377
RPMI 5 mM glucose + 10% FBS	426	418	361
RPMI 5 mM glucose + 10% dialyzed FBS	432	393	323
